Experimental data reported in PubChem BioAssay AID179 (DTP/NCI, 2004).
“And” between values parts separate entries of the source, which are not always exact repeats. Equal entries are not always repeated. The source made the active and inactive calls.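 How the source made its calls: active means compounds giving half or more protection of infected cells from virus-caused growth loss, again on retest; inactive means the rest.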 Where a SMILES comes first, the peptide text is derived from it. The star is where a group is joined. Cbz = O=C(OCc1ccccc1)*

Tested on: CEM cells HIV-1 protection, formazan growth assay
Assay: NCI AIDS Antiviral Assay
Details: for IC50: measured here: growth of uninfected CEM cells
In short: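 Human CEM cells, uninfected and HIV-1-infected, received five drug concentrations, and growth was read by soluble formazan assay. Compounds giving at least 50% protection were retested; reproducible 100% protection defined confirmed active.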

**Q.** FC(F)(Oc1ccc2ccccc2c1)c1nc2ccccc2o1 was tested. Which EC50 did it give?
**A.** > 200 µM

**Q.** What about the IC50 of the same molecule?
**A.** 25.7 µM

**Q.** For CN1C(C(=O)Nc2nccs2)=C(O)c2ccccc2S1(=O)=O, which EC50 is on record?
**A.** > 200 µM

**Q.** What about the IC50 of the same molecule?
**A.** 191 µM

**Q.** Which results are given for CN1CCCc2cc(/C=C\c3ccnc4ccccc34)ccc21?
**A.** EC50: 0.0631 µM; IC50: 4.37 µM

**Q.** How did the EC50 turn out when COC(=O)C1C2C=CC(C2)C1(C(=O)OC)S(=O)CC12CCC(CC1O)C2(C)C (centres undefined) was run?
**A.** > 229 µM

**Q.** And the IC50?
**A.** > 229 µM

**Q.** With c1ccc2c(c1)[nH]c1cnc3c4cccnc4[nH]c3c12 as the molecule, how does the EC50 read?
**A.** > 135 µM

**Q.** And the IC50?
**A.** 12.6 µM

**Q.** Which EC50 does the source give for COc1cc(C=O)c(-c2c(C=O)ccc3c2OCO3)c(OC)c1OC here?
**A.** > 135 µM

**Q.** What about the IC50 of the same molecule?
**A.** 20 µM

**Q.** For COc1ccccc1C1OC2=C(Nc3ccccc3N2)C1=O (centres undefined), which EC50 is on record?
**A.** > 170 µM

**Q.** What about the IC50 of the same molecule?
**A.** > 170 µM

**Q.** Which results are given for COC(=O)CNC(=O)C(NC(=O)C1CCCN1C(=O)OCc1ccccc1)C(C)C (stereo not drawn) (Cbz-Pro-Val-Gly-OMe; configuration not given here)?
**A.** EC50: > 224 µM; IC50: 37.2 µM

**Q.** Cc1cc2nc3c(C(OC4OC(CO)C(O)C(O)C4O)C(O)CO)nn(-c4ccccc4)c3nc2cc1C (centres undefined) was tested. Which outcome did it give?
**A.** inactive

**Q.** What does the source list for O=C(C(=O)n1ccc2ccccc21)n1ccc2ccccc21?
**A.** EC50: > 200 µM; IC50: 178 µM

**Q.** For S=C1NC2=C(CSC/C2=C\c2cccc(Br)c2)C(c2cccc(Br)c2)N1 (centres undefined), which EC50 is on record?
**A.** > 200 µM

**Q.** And the IC50?
**A.** 19.5 µM

**Q.** For COc1ccccc1NC(=O)CC(=O)N1N=C(N(c2ccccc2)c2ccccc2)CC1c1ccccc1 (centres undefined), which outcome is on record?
**A.** inactive

**Q.** And the IC50?
**A.** > 100 µM

**Q.** Which EC50 does the source give for COc1cc(CNC(=O)CCCCCCCC/C=C/Br)ccc1O here?
**A.** > 200 µM

**Q.** What about the IC50 of the same molecule?
**A.** 21.4 µM

**Q.** How did the outcome turn out when [N-]=[N+]=Nc1cc(=O)n2c3c(cccc13)CCC2 was run?
**A.** inactive

**Q.** What does the source list for COc1ccc2c(=O)c3c([nH]c2c1)OCC3=O?
**A.** EC50: > 100 µM; IC50: > 100 µM

**Q.** For CCC1CC2CN3CCc4c([nH]c5ccccc45)C(C(=O)OC)(C2)C13 (centres undefined), which outcome is on record?
**A.** inactive

**Q.** Which outcome does the source give for O=C(O)CSC(=O)Nc1ccc(N=Nc2ccccc2)cc1 here?
**A.** inactive

**Q.** How did the EC50 turn out when CSC1=NC=C(C#N)C2=NC(c3cccs3)NN12 (centres undefined) was run?
**A.** > 339 µM

**Q.** And the IC50?
**A.** 20.4 µM

**Q.** For C=CCc1cc2c(C)cc(=O)oc2c(C)c1OC(C)=O, which EC50 is on record?
**A.** > 19.1 µM

**Q.** And the IC50?
**A.** > 19.1 µM

**Q.** For CN(C)CNc1ncnc2onc(-c3ccccc3)c12, which outcome is on record?
**A.** inactive

**Q.** With CC(=O)Nc1cc(N=Nc2ccc(N=Nc3ccc(NC(=O)c4ccc(N)cc4)cc3C)cc2C)c(S(=O)(=O)O)cc1N=Nc1cccc(C(=O)O)c1 as the molecule, how does the EC50 read?
**A.** 20.9 µM

**Q.** What about the IC50 of the same molecule?
**A.** 170 µM

**Q.** Which results are given for O=C1CCc2ccc3c(c21)CC1(Cc2ccccc2C1)C3?
**A.** EC50: > 200 µM; IC50: > 200 µM

**Q.** How did the outcome turn out when CC1CC(=O)C(CC(=O)O)C1C(C(=O)C(=O)Nc1c(C#N)cccc1[N+](=O)[O-])[N+](=O)[O-] (centres undefined) was run?
**A.** inactive

**Q.** Which EC50 does the source give for C#CC1(O)CCC2C3CCc4cc(OC)ccc4C3CCC21C (centres undefined) here?
**A.** > 200 µM

**Q.** And the IC50?
**A.** 74.1 µM

**Q.** Which results are given for CC1(C)OCC(CO)(CO)CO1?
**A.** EC50: > 1410 µM; IC50: > 1410 µM

**Q.** Which EC50 does the source give for CC(=O)NNc1nc(C)c(C(=O)/C=C/c2ccc(Cl)c(Cl)c2)s1 here?
**A.** > 51.3 µM

**Q.** What about the IC50 of the same molecule?
**A.** > 51.3 µM

**Q.** With O=C(c1ccccc1)c1nnn(Cc2cccc(Cl)c2)c1C(=O)c1ccccc1 as the molecule, how does the EC50 read?
**A.** > 12.9 µM

**Q.** What about the IC50 of the same molecule?
**A.** > 12.9 µM

**Q.** For C=C(C)C1Cc2c(cc(O)c3c(=O)c4c(oc23)C(O)Oc2cc(OC)c(OC)cc2-4)O1 (centres undefined), which EC50 is on record?
**A.** > 200 µM

**Q.** And the IC50?
**A.** 72.4 µM

**Q.** With CC1=CC(=O)N2[C@H](OC[C@@H]2C(C)C)O1 as the molecule, how does the EC50 read?
**A.** > 1260 µM

**Q.** And the IC50?
**A.** > 1260 µM

**Q.** Which EC50 does the source give for O=C1c2ccccc2C(=O)N1/N=C\c1ccc([N+](=O)[O-])cc1 here?
**A.** > 24.5 µM

**Q.** And the IC50?
**A.** > 24.5 µM

**Q.** What does the source list for CC(C)/C(Cl)=N/OC(=O)Nc1ccc(F)c(Cl)c1?
**A.** EC50: > 20 µM; IC50: 3.31 µM

**Q.** What does the source list for Oc1ccc(C(=C(Br)c2ccccc2)c2ccc(O)cc2)cc1?
**A.** EC50: > 200 µM; IC50: 3.98 µM

**Q.** How did the EC50 turn out when CC(=O)Oc1cc(OC(C)=O)c2c(C)cc(=O)oc2c1 was run?
**A.** > 200 µM

**Q.** What about the IC50 of the same molecule?
**A.** 148 µM

**Q.** How did the EC50 turn out when C=C1c2nc3ccccc3n2C=C(c2ccccc2)N1c1ccc(Cl)cc1 was run?
**A.** > 200 µM

**Q.** What about the IC50 of the same molecule?
**A.** 32.4 µM

**Q.** CC1(C)N=C(N)N=C(N)N1c1cccc(/C=C(\C#N)c2ccccc2)c1 was tested. Which EC50 did it give?
**A.** > 200 µM

**Q.** And the IC50?
**A.** 4.79 µM

**Q.** Cc1cc(Nc2ccc(N=Nc3ccc(O)c4ncccc34)cc2)nc(C)n1 was tested. Which EC50 did it give?
**A.** > 200 µM

**Q.** What about the IC50 of the same molecule?
**A.** 6.46 µM

**Q.** Which results are given for CC1(C2=CCCCC2)CCC(=O)NC1=O (centres undefined)?
**A.** EC50: > 200 µM; IC50: > 200 µM

**Q.** How did the EC50 turn out when C[C@@H]1[C@@H](c2ccccc2)C12C(=O)NC(=O)NC2=O was run?
**A.** > 200 µM

**Q.** And the IC50?
**A.** > 200 µM

**Q.** How did the EC50 turn out when COc1ccc(NC(=O)CC(=O)N2N=C(N(CCC#N)c3ccc(Cl)cc3)CC2c2ccccc2)cc1 (centres undefined) was run?
**A.** > 36.3 µM

**Q.** What about the IC50 of the same molecule?
**A.** > 36.3 µM

**Q.** CC(=O)c1ccc(NC(=O)/C(Cc2ccccn2)=N/NC(=O)C[N+](C)(C)C)cc1 was tested. Which outcome did it give?
**A.** inactive

**Q.** With O=C1CC[C@@H](S(=O)(=O)c2ccccc2)[C@@H](/C=C/c2ccccc2)O1 as the molecule, how does the outcome read?
**A.** inactive

**Q.** Cc1nc2c(nc1C)C(=O)c1ccccc1C2=O was tested. Which EC50 did it give?
**A.** > 200 µM

**Q.** What about the IC50 of the same molecule?
**A.** 4.57 µM

**Q.** Which EC50 does the source give for O=C(C(=O)N1CCc2ccccc21)c1c[nH]c2ccccc12 here?
**A.** > 200 µM

**Q.** What about the IC50 of the same molecule?
**A.** > 200 µM

**Q.** How did the EC50 turn out when NNC(=O)c1ccccc1NC(=O)/C(=C/c1ccccc1)NC(=O)c1ccccc1 was run?
**A.** > 200 µM

**Q.** What about the IC50 of the same molecule?
**A.** 87.1 µM

**Q.** Which outcome does the source give for CCC[CH2][Sn]1([CH2]CCC)[O]C(=O)c2cccc(C)c2[O]1 here?
**A.** inactive

**Q.** For CCOC(=O)CSc1ccnc(=O)[nH]1, which EC50 is on record?
**A.** > 851 µM

**Q.** What about the IC50 of the same molecule?
**A.** > 851 µM

**Q.** CNc1ccc(S(=O)Nc2ccc(OC)cc2)cc1 (centres undefined) was tested. Which EC50 did it give?
**A.** > 200 µM

**Q.** And the IC50?
**A.** 17.8 µM

**Q.** With Cc1ccc2c(n1)C(N(C)C)=CC(=O)C2=O as the molecule, how does the outcome read?
**A.** inactive

**Q.** For O=C(O)C12C3CCCC1C2CC3 (centres undefined), which outcome is on record?
**A.** inactive

**Q.** CCN(CC)C(=C(C(Cl)=C(Cl)Cl)[N+](=O)[O-])N(CC)CC was tested. Which EC50 did it give?
**A.** > 200 µM

**Q.** What about the IC50 of the same molecule?
**A.** 117 µM

**Q.** What does the source list for O=C(/C=C/c1ccccc1)NCCC1(O)C(=O)Nc2ccccc21 (centres undefined)?
**A.** EC50: > 562 µM; IC50: 525 µM

**Q.** How did the EC50 turn out when COC(=O)N1CCCCC(CCC#CC[Si](C)(C)C)C1=O (centres undefined) was run?
**A.** > 120 µM

**Q.** And the IC50?
**A.** 110 µM

**Q.** With N#Cc1c(NN)nc(NN)c(C#N)c1-c1ccccc1 as the molecule, how does the EC50 read?
**A.** > 97.7 µM

**Q.** What about the IC50 of the same molecule?
**A.** 50.1 µM

**Q.** For O=C(O)/C=C/C=C/C(=O)O, which EC50 is on record?
**A.** > 200 µM

**Q.** What about the IC50 of the same molecule?
**A.** > 200 µM

**Q.** How did the EC50 turn out when CN1CCN=C1c1ccc(NC(=O)c2ccc(C(=O)Nc3ccc(C4=NCCN4C)cc3)cc2)cc1 was run?
**A.** > 200 µM

**Q.** And the IC50?
**A.** 74.1 µM

**Q.** COc1cccc(NC(=O)c2c(SC)n[nH]c2N)c1 was tested. Which EC50 did it give?
**A.** > 200 µM

**Q.** What about the IC50 of the same molecule?
**A.** > 200 µM

**Q.** C[n+]1c2ccccc2c(CNCC(=O)O)c2ccccc21 was tested. Which outcome did it give?
**A.** inactive

**Q.** What does the source list for C#CCOCn1cnc2c(Sc3c([N+](=O)[O-])ncn3C)ncnc21?
**A.** EC50: > 105 µM; IC50: 38 µM

**Q.** For CCOC1CC(C)N(C(=O)c2ccccc2)O1 (centres undefined), which EC50 is on record?
**A.** > 200 µM

**Q.** What about the IC50 of the same molecule?
**A.** > 200 µM

**Q.** How did the EC50 turn out when CCN(CC)CN1C(=O)C(=O)c2ccccc21 was run?
**A.** > 200 µM

**Q.** And the IC50?
**A.** > 200 µM

**Q.** For N#Cc1c(N)oc(-c2ccccc2)c1-c1ccccc1, which outcome is on record?
**A.** inactive

**Q.** How did the outcome turn out when CSc1nc2c(c(=O)[nH]1)N=C(c1ccc([N+](=O)[O-])cc1)CC(c1ccccc1)N2 (centres undefined) was run?
**A.** inactive

**Q.** Cc1ccc(Nc2nc3c(s2)C(=O)c2ccccc2C3=O)c(C)c1 was tested. Which EC50 did it give?
**A.** > 30.2 µM

**Q.** And the IC50?
**A.** 15.8 µM

**Q.** What does the source list for N#CC(N=O)C(N)=O (centres undefined)?
**A.** EC50: > 200 µM; IC50: > 200 µM

**Q.** For COc1c2c3c(c(OC)c1OC)-c1ccc(O)cc1C3=NCC2, which outcome is on record?
**A.** inactive

**Q.** For COc1ccc2cc3[n+](cc2c1OC)CCc1cc2c(cc1-3)OCO2, which EC50 is on record?
**A.** > 339 µM

**Q.** And the IC50?
**A.** 6.76 µM and 3.31 µM

**Q.** For Cc1ccc(NC(=O)C(=O)C(C(=O)/C=C/c2ccccc2)C2OC(=O)c3ccccc32)c(C)c1 (centres undefined), which EC50 is on record?
**A.** > 427 µM

**Q.** What about the IC50 of the same molecule?
**A.** 63.1 µM
